Experimental data as given in ChEMBL document CHEMBL5325422, “Design and synthesis of fascaplysin derivatives as inhibitors of FtsZ with potent antibacterial activity and mechanistic study” (Eur J Med Chem, 2023).
Converted amounts (≈) assume the structure as drawn. The source made the active and inactive calls. The calls are words filed in the database; no cut-off is given here.

Columns and labels:
Staphylococcus aureus [1] = test: Antibacterial activity against methicillin-resistant Staphylococcus aureus ATCC43300 assessed as filamentation on cell surface at 4 times MIC incubated for 2 hrs by SEM analysis; assay type: functional, organism-based
Staphylococcus aureus [2] = test: Antibacterial activity against methicillin-resistant Staphylococcus aureus ATCC43300 assessed as bacterial growth inhibition incubated for 18 to 24 hrs by microbroth dilution method; assay type: functional; settings: time 18-24 hrs
Bacillus subtilis [3] = test: Antibacterial activity against Bacillus subtilis BNCC336690 assessed as bacterial growth inhibition incubated for 18 to 24 hrs by microbroth dilution method; assay type: functional; settings: time 18-24 hrs
Streptococcus pneumoniae = test: Antibacterial activity against Streptococcus pneumoniae ATCC49619 assessed as bacterial growth inhibition incubated for 18 to 24 hrs by microbroth dilution method; assay type: functional; settings: time 18-24 hrs
Escherichia coli = test: Antibacterial activity against penicillin-susceptible Escherichia coli ATCC25922 assessed as bacterial growth inhibition incubated for 18 to 24 hrs by microbroth dilution method; assay type: functional; settings: time 18-24 hrs
Staphylococcus aureus [4] = test: Antibacterial activity against methicillin-resistant Staphylococcus aureus ATCC43300 assessed as log10 CFU reduction at MIC measured for 1 hr by time-killing assay; assay type: functional
Staphylococcus aureus [5] = test: Antibacterial activity against methicillin-resistant Staphylococcus aureus ATCC43300 assessed as log10 CFU reduction at 2 to 4 times MIC measured for 0.5 hrs by time-killing assay; assay type: functional
Staphylococcus aureus [6] = test: Antibacterial activity against drug-resistant Staphylococcus aureus ATCC43300 assessed as inhibition of resistance development at 0.5 times MIC after 25 passages incubated for 18 to 24 hrs by microbroth dilution method; assay type: functional, organism-based; settings: time 18-24 hrs
Staphylococcus aureus [7] = test: Antibacterial activity against methicillin-resistant Staphylococcus aureus ATCC43300 assessed as wrinkling cell surface at 4 times MIC incubated for 2 hrs by SEM analysis; assay type: functional, organism-based
Bacillus subtilis [8] = test: Antibacterial activity against Bacillus subtilis BNCC336690 assessed as increase in cell length at 0.5 times MIC incubated for 4 hrs by microscopic analysis; assay type: functional, organism-based
[9] = biological target: T1, Cell division protein FtsZ (Escherichia coli K-12) (UniProt P0A9A6); test: Inhibition of recombinant Escherichia coli FtsZ expressed in Escherichia coli BL21 assessed as induction of FtsZ polymerization incubated for 10 mins by light scattering assay; settings: dose 1-4 µg/ml
T1 sequence (whole entry): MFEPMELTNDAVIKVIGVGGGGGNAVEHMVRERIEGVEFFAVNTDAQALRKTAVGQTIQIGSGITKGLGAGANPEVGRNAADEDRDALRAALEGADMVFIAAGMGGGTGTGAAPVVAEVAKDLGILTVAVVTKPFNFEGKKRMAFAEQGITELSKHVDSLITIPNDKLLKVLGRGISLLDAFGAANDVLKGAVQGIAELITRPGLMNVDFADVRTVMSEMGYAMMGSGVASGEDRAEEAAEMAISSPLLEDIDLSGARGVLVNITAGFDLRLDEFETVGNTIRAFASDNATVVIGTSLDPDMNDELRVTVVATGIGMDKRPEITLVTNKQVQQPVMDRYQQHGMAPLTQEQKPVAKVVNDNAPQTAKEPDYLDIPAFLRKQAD

[10] = biological target: T1, Cell division protein FtsZ (Escherichia coli K-12); test: Inhibition of recombinant Escherichia coli FtsZ expressed in Escherichia coli BL21 assessed as bundling of FtsZ filaments at 4 ug/ml incubated for 10 mins by TEM analysis; settings: dose 4.0 µg/ml
[11] = biological target: T1, Cell division protein FtsZ (Escherichia coli K-12); test: Inhibition of recombinant Escherichia coli FtsZ expressed in Escherichia coli BL21 assessed as reduction in GTPase activity incubated for 30 mins by malachite green phosphate staining based assay; settings: dose 0.02-0.64 µg/ml
[12] = Hemolytic activity in human erythrocytes assessed as release of hemoglobin level at 12.5 ug/ml incubated for 1 hr by absorbance based assay relative to control; assay type: toxicity, cell-based, Erythrocyte; settings: at 12.5 µg/mL, read-out: Activity
[13] = Cytotoxicity against mouse RAW264.7 cells assessed as cell survival at 12.5 ug/ml incubated for 24 hrs by CCK8 assay relative to control; assay type: toxicity, cell-based; settings: at 12.5 µg/mL, read-out: Activity
[14] = Cytotoxicity against mouse RAW264.7 cells assessed as cell survival at 25 ug/ml incubated for 24 hrs by CCK8 assay relative to control; assay type: toxicity, cell-based; settings: at 25 µg/mL, read-out: Activity
[15] = Cytotoxicity against mouse RAW264.7 cells assessed as cell survival at 50 ug/ml incubated for 24 hrs by CCK8 assay relative to control; assay type: toxicity, cell-based; settings: at 50 µg/mL, read-out: Activity
RAW264.7 = test: Cytotoxicity against mouse RAW264.7 cells >12.5 ug/ml incubated for 24 hrs by CCK8 assay; assay type: toxicity, cell-based; settings: raw264.7, 24 h, dose > 12.5 µg/ml
Staphylococcus aureus [16] = test: Antibacterial activity against methicillin-resistant Staphylococcus aureus ATCC43300 assessed as log10 CFU reduction at 1 to 4 times MIC measured after 4 hrs by time-killing assay; assay type: functional
[17] = biological target: T1, Cell division protein FtsZ (Escherichia coli K-12); test: Inhibition of recombinant Escherichia coli FtsZ expressed in Escherichia coli BL21 assessed as induction of FtsZ polymerization at 4 ug/ml incubated for 10 mins by light scattering assay; settings: dose 4.0 µg/ml
Staphylococcus aureus [18] = test: Antibacterial activity against methicillin-resistant Staphylococcus aureus ATCC43300 assessed as bacterial count reduction at 2 times MIC measured after 10 hrs by time-killing assay; assay type: functional, organism-based
[19] = biological target: T1, Cell division protein FtsZ (Escherichia coli K-12); test: Inhibition of recombinant Escherichia coli FtsZ expressed in Escherichia coli BL21 assessed as reduction in GTPase activity at 0.32 ug/ml incubated for 30 mins by malachite green phosphate staining based assay relative to control; settings: dose 0.32 µg/ml

Row | Structure (SMILES) | MIC (Staphylococcus aureus [2]) [mg/L] | MIC (Bacillus subtilis [3]) [mg/L] | MIC (Streptococcus pneumoniae) [mg/L] | MIC (Escherichia coli) [mg/L] | further results
1 | COc1ccccc1NC(=O)c1ccc2[nH]c3c4[n+](ccc3c2c1)-c1ccccc1C4=O.[Br-] | 0.049 | 0.024 | 0.049 | > 200 | Activity (Staphylococcus aureus [1]): Active; Activity (Staphylococcus aureus [4]): 2 log10CFU/ml; Activity (Staphylococcus aureus [5]): 2 log10CFU/ml; inhibition (Staphylococcus aureus [6]): inactive; Activity (Staphylococcus aureus [7]): Active; Activity (Bacillus subtilis [8]): Active; inhibition [9]: Dose-Dependent Effect; inhibition [10]: Active; inhibition [11]: Dose-Dependent Effect; hemolysis at 1 h, 12.5 ug/ml [12]: 0%; viability at 24 h, 12.5 ug/ml [13]: 14.6%; viability at 24 h, 25 ug/ml [14]: 12.8%; viability at 24 h, 50 ug/ml [15]: 13.2%; Activity (RAW264.7): Toxic
2 | O=C(NC1CCCCC1)c1ccc2[nH]c3c4[n+](ccc3c2c1)-c1ccccc1C4=O.[Br-] | 0.78 | 0.78 | 0.78 | > 200 | 
3 | CCCCNC(=O)c1ccc2[nH]c3c4[n+](ccc3c2c1)-c1ccccc1C4=O.[Br-] | 6.25 | 3.12 | 3.12 | > 200 | 
4 | Cc1ccc(NC(=O)c2ccc3[nH]c4c5[n+](ccc4c3c2)-c2ccccc2C5=O)cc1.[Br-] | 0.78 | 0.195 | 0.39 | > 200 | 
5 | CCCCCCc1ccc(NC(=O)c2ccc3[nH]c4c5[n+](ccc4c3c2)-c2ccccc2C5=O)cc1.[Br-] | 25 | 0.78 | 6.25 | > 200 | 
6 | CCCCCCCCc1ccc(NC(=O)c2ccc3[nH]c4c5[n+](ccc4c3c2)-c2ccccc2C5=O)cc1.[Br-] | 25 | 25 | 25 | > 200 | 
7 | Cc1cccc(NC(=O)c2ccc3[nH]c4c5[n+](ccc4c3c2)-c2ccccc2C5=O)c1.[Br-] | 0.098 | 0.049 | 0.098 | > 200 | Activity (Staphylococcus aureus [1]): Active; Activity (Staphylococcus aureus [16]): 2 log10CFU/ml; inhibition (Staphylococcus aureus [6]): inactive; Activity (Staphylococcus aureus [7]): Active; inhibition [17]: Active; Activity (Bacillus subtilis [8]): Active; inhibition [9]: Dose-Dependent Effect; inhibition [10]: Active; inhibition [11]: Dose-Dependent Effect; hemolysis at 1 h, 12.5 ug/ml [12]: 0%; viability at 24 h, 12.5 ug/ml [13]: 104%; viability at 24 h, 25 ug/ml [14]: 106%; viability at 24 h, 50 ug/ml [15]: 101%
8 | CC(C)c1ccc(NC(=O)c2ccc3[nH]c4c5[n+](ccc4c3c2)-c2ccccc2C5=O)cc1.[Br-] | 0.195 | 0.049 | 0.049 | > 200 | 
9 | CN[C@H](CC(C)C)C(=O)N[C@H]1C(=O)N[C@@H](CC(N)=O)C(=O)N[C@H]2C(=O)N[C@H]3C(=O)N[C@H](C(=O)N[C@H](C(=O)O)c4cc(O)cc(O)c4-c4cc3ccc4O)[C@H](O)c3ccc(c(Cl)c3)Oc3cc2cc(c3O[C@@H]2O[C@H](CO)[C@@H](O)[C@H](O)[C@H]2O[C@H]2C[C@](C)(N)[C@H](O)[C@H](C)O2)Oc2ccc(cc2Cl)[C@H]1O [VANCOMYCIN] |  |  |  | > 200 | Activity (Staphylococcus aureus [18]): inactive
10 | Cc1ccccc1NC(=O)c1ccc2[nH]c3c4[n+](ccc3c2c1)-c1ccccc1C4=O.[Br-] | 25 | 12.5 | 50 | > 200 | 
11 | CCCCc1ccc(NC(=O)c2ccc3[nH]c4c5[n+](ccc4c3c2)-c2ccccc2C5=O)cc1.[Br-] | 3.12 | 0.049 | 0.78 | > 200 | 
12 | COc1cccc(NC(=O)c2ccc3[nH]c4c5[n+](ccc4c3c2)-c2ccccc2C5=O)c1.[Br-] | 0.39 | 0.195 | 0.39 | > 200 | 
13 | O=C(Nc1ccccc1)c1ccc2[nH]c3c4[n+](ccc3c2c1)-c1ccccc1C4=O.[Br-] | 12.5 | 6.25 | 6.25 | > 200 | 
14 | O=C(O)c1cn(C2CC2)c2cc(N3CCNCC3)c(F)cc2c1=O [CIPROFLOXACIN] | 0.78 (≈ 2.35 µM) | 0.195 (≈ 0.589 µM) | 0.195 (≈ 0.589 µM) | 0.195 (≈ 0.589 µM) | 
15 | CC(C)c1cccc(NC(=O)c2ccc3[nH]c4c5[n+](ccc4c3c2)-c2ccccc2C5=O)c1.[Br-] | 0.098 | 0.098 | 0.049 | > 200 | Activity (Staphylococcus aureus [1]): Active; Activity (Staphylococcus aureus [16]): 2 log10CFU/ml; inhibition (Staphylococcus aureus [6]): inactive; Activity (Staphylococcus aureus [7]): Active; Activity (Bacillus subtilis [8]): Active; inhibition [9]: Dose-Dependent Effect; inhibition [10]: Active; inhibition [11]: Dose-Dependent Effect; inhibition [19]: 40%; hemolysis at 1 h, 12.5 ug/ml [12]: 0%; viability at 24 h, 12.5 ug/ml [13]: 98.8%; viability at 24 h, 25 ug/ml [14]: 100%; viability at 24 h, 50 ug/ml [15]: 98.2%
16 | CCCCCCNC(=O)c1ccc2[nH]c3c4[n+](ccc3c2c1)-c1ccccc1C4=O.[Br-] | 0.39 | 0.39 | 0.39 | > 200 | 
17 | COc1ccc(NC(=O)c2ccc3[nH]c4c5[n+](ccc4c3c2)-c2ccccc2C5=O)cc1.[Br-] | 0.39 | 0.39 | 0.39 | > 200 | 
18 | CC(C)c1ccccc1NC(=O)c1ccc2[nH]c3c4[n+](ccc3c2c1)-c1ccccc1C4=O.[Br-] | 12.5 | 6.25 | 50 | > 200 | 
